Test results reported in patent US8883758B2, “3,5-disubstituted and 3,5,7-trisubstituted-3H-oxazolo and 3H-thiazolo[4,5-d]pyrimidin-2-one compounds and prodrugs thereof” (Anadys Pharmaceuticals, Inc., priority 2004, dated 2014).

Key:
[1] = tested on: fresh cynomolgus monkey hepatocytes; assay: Metabolism of Formula I prodrugs to 6-oxy metabolites in fresh cynomolgus monkey hepatocytes (LC/MS/MS); type: in vitro ADME
Experimental: A study was undertaken to evaluate the metabolic stability of Formula I compounds 14, 15, 13, 114, 30, 103, 67, 65, and 76 in the presence of fresh cynomolgus monkey hepatocytes and monitor the formation of 6-oxy metabolites, i.e., Formula II compounds and other compounds of the invention. For comparison, the metabolic stability of famciclovir was also assessed.
Fresh cynomolgus monkey hepatocyte suspension (Lot #: Cy141) was purchased from CellzDirect (Tucson, Ariz.). Hepatocyte Incubation Medium (serum-free, sterile) was purchased from In Vitro Technologies (Baltimore, Md.).
The cynomolgus monkey hepatocyte suspension was prepared from fresh cynomolgus monkey hepatocytes in hepatocyte incubation medium at the concentration of 1.25 million cells/mL. The final incubation concentration (after test article addition) was 1.0 million cells/mL.
Existing 100 mM stock solutions in DMSO were used. The concentrations of the test articles were checked using UV-vis microplate reader. Correction coefficients were determined using the absorbance of a freshly prepared DMSO stock of 122.
Reaction suspensions were prepared in removable 96-well tubes, each containing 320 μL of fresh cynomolgus monkey hepatocyte suspension at the density of 1.25 million cells per mL and 40 μL of hepatocyte incubation medium. The above mixtures were pre-incubated open at 37° C., 95% humidity and 5% CO2 for 30 minutes. Reactions were initiated by the addition of 40 μL of test article at 10× concentration to each tube to achieve the final concentrations of 50 μM for the test article(s) and 1 million/mL cell density. The reaction suspension in each tube was mixed by inverting the tube several times. Aliquots of 50 μL from each reaction suspension were distributed into six additional removable 96-well tubes (one tube per time point taken at 15, 30, 45, 60, 90, and 120 minutes). The open tubes were incubated at 37° C. under 95% humidity and 5% CO2.
At predetermined time points, reactions were terminated by the addition of 150 μL of the stop solution to each tube containing 50 μL of the reaction suspension. The composition of the stop solution was the following: 15 mL of acetonitrile (containing 1 μg/mL nebularine as an internal standard and 0.1% formic acid) combined with 1 mL water.
The calibration curves were prepared in the following way. To 80 μL of cell suspension (at the cell density of 1.25 million/mL) 10 μL of hepatocyte incubation medium and 10 μL of the appropriate concentration of the compound in hepatocyte incubation medium were added Immediately following the compound addition, 300 μL of the stop solution (see above) was added.
All quenched samples were kept on wet ice until they were processed for analysis. Then they were mixed using a bench top Multi-Tube Vortexer (VWR Scientific Products) for approximately 30 seconds, and centrifuged at 4,000 rpm (3,220 rcf) for 10 minutes at 4° C. Clear supernatant (100 μl) was transferred into a clean deep well 96-well plate, evaporated to dryness under nitrogen, reconstituted in 100 μL of 90:10 water:acetonitrile, and analyzed for the parent form and metabolites of the test article using an appropriate LC/MS/MS method.
The compounds were quantified on an API3000 LC/MS/MS instrument in the ESI-Positive MRM (multiple reaction monitoring) mode.

human PBMCs = assay: IFN-α induction from peripheral blood mononuclear cells (PBMC), IFN-α ELISA; type: cell-based; settings: for Emax: Homo sapiens, PBMC, percentage of the level of IFN-α induction by either 32 or 100 μM isatoribine, 24 hours compound exposure, read-out: IFN-α induction from PBMCs relative to isatoribine; for Difference in amount of IFN-α produced compared with isatoribine: 100 μM test agent
Experimental: Peripheral blood mononuclear cells (PBMCs) are prepared by standard methods from human blood and are primarily comprised of monocytes, NK cells, circulating dendritic cells and both T and B cells. Briefly, they are purified by density gradient centrifugation from a buffy coat, which is the component of whole blood that contains leukocytes and platelets. In turn, buffy coats are prepared by centrifuging whole blood and isolating the thin cream colored layer between the upper plasma layer and the lower red blood cell portion of the separated mixture.
Freshly collected donor buffy coats were obtained from the San Diego Blood Bank. PBMCs were isolated from the buffy coats using histopaque-1077 gradient (Sigma), essentially as described in the manufacturer's protocol. Buffy coats were transferred into 50 ml centrifuge tubes and PBS added to a total volume of 35 ml. Next 10 ml histopaque-1077 was underlayed at the bottom of each tube, which were then centrifuged at 259×g for 30 minutes at room temperature without brake in a 5804 R centrifuge (Eppendorf). The top PBS level from each tube was removed and discarded and the buffy coat layer transferred to a fresh tube. The total volume was made up to 50 ml with PBS and the tubes were then centrifuged for 10 minutes at 259×g at room temperature. The cells were washed an additional 3 times with PBS in this manner.
The cell (PBMC) pellet was then resuspended in 30-40 ml complete (RPMI 1640) media. PBMCs were seeded at either 2.5 or 7.5×10^6 cells/ml complete media (1× and 3× seedings, respectively) and allowed to rest overnight before compound exposure for 24 hours. The cells and media were then collected, centrifuged for 5 minutes at 735×g in a 5415 C microfuge (Eppendorf) at room temperature and the supernatant analyzed by IFN-α ELISA. […] Hereby incorporated by reference in their entireties are U.S. Pat. Nos. 5,041,426 and 4,880,784, and U.S. patent application Ser. No. 10/861,430 (U.S. Patent Application Publication No. US 2005/0070556), which disclose, inter alia, IFN-α induction of isatoribine.
Accordingly, relative activities of the compounds of the invention are expressed as a percentage of the level of IFN-α induction by either 32 or 100 μM isatoribine.
Human IFN-α ELISA (#KHC4012) was performed as described in Biosource protocol. However, to ensure that readings were within the linear range of detection, PBMC supernatant samples were typically diluted 1:3 (2.5×10^6 cells/ml seeding) or 1:15 (7.5×10^6 cells/ml seeding) and then analyzed together with undiluted supernatant samples. The concentration in each sample was calculated from the O.D. by reference to a standard curve.

[2] = 1× PBMC seeding, 100 μM test compound

| SMILES | Emax (human PBMCs) [%] | further results |
| --- | --- | --- |
| CC(=O)OCC[C@H]1O[C@@H](n2c(=O)sc3cnc(N)nc32)[C@H](OC(C)=O)[C@@H]1OC(C)=O [Compound 67, 5-Amino-3-(5′-O-acetoxymethyl-2′,3′-di-O-acetyl-5′-deoxy-β-D-ribofuranosyl)-3H-thiazolo[4,5-d]pyrimidin-2-one] | – | Metabolism to the corresponding 6-oxy metabolite [1]: metabolized to yield the corresponding 6-oxy metabolites |
| CCCCCCn1c(=O)sc2c(=O)[nH]c(N)nc21 [Compound 157, 5-Amino-3-hexyl-3H,6H-thiazolo[4,5-d]pyrimidine-2,7-dione] | 0 to 10 | – |
| Nc1nc2c(sc(=O)n2[C@@H]2O[C@H](CO)[C@@H](CO)[C@H]2O)c(=O)[nH]1 [Compound 148, (3′S)-5-Amino-3-(3′-deoxy-3′-hydroxymethyl-β-D-ribofuranosyl)-3H,6H-thiazolo[4,5-d]pyrimidin-2,7-dione] | 0 to 10 | – |
| CC(=O)OC[C@@H]1C[C@@H](OC(C)=O)[C@H](n2c(=O)sc3c(=O)[nH]c(N)nc32)O1 [Compound 121, 5-Amino-3-(2′,5′-di-O-acetyl-3′-deoxy-β-D-ribofuranosyl)-3H,6H-thiazolo[4,5-d]pyrimidine-2,7-dione] | > 100 | – |
| Nc1nc2c(sc(=O)n2[C@H]2CC[C@@H](CO)O2)c(=O)[nH]1 [Compound 165, 5-Amino-3-(2′,3′-dideoxy-β-D-ribofuranosyl)-3H,6H-thiazolo[4,5-d]pyrimidine-2,7-dione] | 11 to 50 | – |
| CC(=O)OC[C@H]1O[C@@H](n2c(=S)sc3c(=O)[nH]c(N)nc32)[C@H](OC(C)=O)[C@@H]1OC(C)=O [Compound 32, 5-amino-2,3-dihydro-2-thioxo-3-(2′,3′,5′-tri-O-acetyl-β-D-ribofuranosyl)thiazolo[4,5-d]pyrimidin-7-(6H)-one] | 51 to 100 | – |
| Nc1nc2c(sc(=O)n2[C@H]2C[C@H](O)[C@@H](CO)O2)c(=O)[nH]1 [Compound 130, 5-Amino-3-(2′-deoxy-β-D-ribofuranosyl)-3H,6H-thiazolo[4,5-d]pyrimidine-2,7-dione] | 51 to 100 | – |
| C[C@]1(O)[C@@H](CO)O[C@@H](n2c(=O)sc3c(=O)[nH]c(N)nc32)[C@@H]1O [Compound 141, 5-Amino-3-(3′-(S)-methyl, 2′,3′,5′-tri-hydroxy-β-D-xylofuranosyl)-3H,6H-thiazolo[4,5-d]pyrimidin-2-one] | 0 to 10 | – |
| CC(=O)O[C@@H]1[C@@H](F)[C@@H](COC(=O)c2ccccc2)O[C@H]1n1c(=O)sc2c(=O)[nH]c(N)nc21 [Compound 152, (3′R)-5-Amino-3-(2′-O-acetyl-5′-O-benzoyl-3′-deoxy-3′-fluoro-β-D-xylofuranosyl)-3H,6H-thiazolo[4,5-d]pyrimidin-2,7-dione] | 11 to 50 | – |
| C=C1[C@@H](O)[C@H](n2c(=O)sc3c(=O)[nH]c(N)nc32)O[C@@H]1CO [Compound 132, 5-Amino-3-(3′-deoxy-3′-methylidene-β-D-ribofuranosyl)-3H,6H-thiazolo[4,5-d]pyrimidine-2,7-dione] | > 100 | – |
| Nc1nc2c(sc(=O)n2[C@@H]2O[C@H](CO)C[C@H]2O)c(=O)[nH]1 [Compound 122, 5-Amino-3-(3′-deoxy-β-D-ribofuranosyl)-3H,6H-thiazolo[4,5-d]pyrimidine-2,7-dione] | > 100 | IFN-α production compared with isatoribine (human PBMCs; [2]): significantly and substantially more IFN-α production; IFN-α production compared with isatoribine (human PBMCs; 3× PBMC seeding, 32 μM): dramatically and unexpectedly outperform isatoribine; Difference in amount of IFN-α produced compared with isatoribine (human PBMCs; 3× PBMC seeding): less clear-cut although visually apparent and statistically significant |
| CC(=O)OC[C@H]1O[C@@H](n2c(=O)sc3c(=O)[nH]c(N)nc32)[C@H](OC(C)=O)[C@H]1OC(C)=O [Compound 133, 5-Amino-3-(2′,3′,5′-tri-O-acetyl-β-D-xylofuranosyl)-3H,6H-thiazolo[4,5-d]pyrimidin-2-one] | > 100 | – |
| C[C@@]1(O)[C@@H](CO)O[C@@H](n2c(=O)sc3c(=O)[nH]c(N)nc32)[C@@H]1O [Compound 117, 5-Amino-3-(3′-C-methyl-β-D-ribofuranosyl)thiazolo[4,5-d]pyrimidine-2,7(3H,6H)-dione] | > 100 | – |
| Nc1nc2c(sc(=O)n2[C@@H]2O[C@H](CO)[C@H](O)[C@H]2O)c(=O)[nH]1 [Compound 134] | > 100 | IFN-α production compared with isatoribine (human PBMCs; [2]): significantly and substantially more IFN-α production; IFN-α production compared with isatoribine (human PBMCs; 3× PBMC seeding, 32 μM): dramatically and unexpectedly outperform isatoribine; Difference in amount of IFN-α produced compared with isatoribine (human PBMCs; 3× PBMC seeding): less clear-cut although visually apparent and statistically significant |
| CC(=O)OC[C@H]1O[C@@H](n2c(=S)sc3c(=O)[nH]c(N)nc32)[C@H](OC(C)=O)[C@H]1OC(C)=O [Compound 34, 5-amino-2,3-dihydro-2-thioxo-3-(2′,3′,5′-tri-O-acetyl-β-D-xylofuranosyl)thiazolo[4,5-d]pyrimidin-7-(6H)-one] | > 100 | – |
| CC(=O)OCC(OC(C)=O)[C@H]1O[C@@H](n2c(=O)sc3c(=O)[nH]c(N)nc32)[C@H](OC(C)=O)[C@H]1OC(C)=O (stereo partly drawn) [Compound 142, 5-Amino-3-(5′-(1,2-diacetoxy-ethyl), 2′,3′-di-O-acetyl-β-D-glucofuranosyl)-3H,6H-thiazolo[4,5-d]pyrimidin-2-one] | 0 to 10 | – |
| Nc1nc2c(sc(=S)n2[C@@H]2O[C@H](CO)[C@@H](O)[C@H]2O)c(=O)[nH]1 [Compound 33, 5-amino-2,3-dihydro-2-thioxo-3-β-D-ribofuranosyl-thiazolo[4,5-d]pyrimidin-7(6H)-one] | 0 to 10 | – |
| CO[C@@H]1[C@@H](O)[C@H](n2c(=O)sc3c(=O)[nH]c(N)nc32)O[C@@H]1CO [Compound 137, 5-Amino-3-(3′-(R)-Methoxy-β-D-xylofuranosyl)-3H,6H-thiazolo[4,5-d]pyrimidin-2-one] | 51 to 100 | – |
| CC(=O)OC[C@H]1[C@@H](OC(C)=O)[C@H](n2c(=O)sc3c(=O)[nH]c(N)nc32)O[C@@H]1COC(C)=O [Compound 147, (3′S)-5-Amino-3-(3′-acetoxymethyl-2′,5′-di-O-acetyl-3′-deoxy-β-D-ribofuranosyl)-3H,6H-thiazolo[4,5-d]pyrimidin-2,7-dione] | > 100 | – |
| Nc1nc2c(sc(=O)n2[C@@H]2O[C@H](CO)[C@H](F)[C@H]2O)c(=O)[nH]1 [Compound 153, (3′R)-5-Amino-3-(3′-deoxy-3′-fluoro-β-D-xylofuranosyl)-3H,6H-thiazolo[4,5-d]pyrimidin-2,7-dione] | > 100 | – |
